From publication PMC11953117 (Cancer Chemotherapy and Pharmacology, 2025)

Assay: Safety endpoints (treatment-emergent AEs, CTCAE v4) in three phase 1 studies
Type: in vivo, human
From the text: AEs were collected throughout the trials, graded using Common Terminology Criteria for Adverse Events v4. Treatment-emergent AEs (TEAEs), defined as any AE that started after the first dose of study treatment or that started prior to dosing and worsened during on treatment period (by investigator report of a change in intensity) following exposure to treatment, were included in the analysis.
The rash AE endpoint pooled the following Medical Dictionary for Regulatory Activities (MedDRA) preferred terms: rash maculo-papular, rash macular, rash, rash generalized, rash papular and rash pruritic, while the diarrhea AE and hyperglycemia AE included the MedDRA preferred terms diarrhea and hyperglycemia, respectively.
The grade selection for diarrhea and rash was based on clinical relevance in terms of limiting quality of life; for hyperglycemia the grade was higher considering this is a pharmacodynamic effect of AKT inhibition and often seen as asymptomatic change of laboratory value only.

[1] = Continuous BID, 80 mg, N=8, pooled studies
[2] = Continuous BID, 160 mg, N=5, pooled studies
[3] = Continuous BID, 240 mg, N=13, pooled studies
[4] = Continuous BID, 320 mg, N=18, pooled studies
[5] = Continuous BID, 400 mg, N=16, pooled studies
[6] = Continuous BID, 480 mg, N=6, pooled studies
[7] = Continuous BID, 600 mg, N=2, pooled studies
[8] = Total, all doses and schedules, N=277
[9] = [2/5] BID, 640 mg, N=14, pooled studies
[10] = [2/5] BID, 800 mg, N=14, pooled studies
[11] = [4/3] BID, 360 mg, N=8, pooled studies
[12] = [4/3] BID, 480 mg, N=163, pooled studies
[13] = [4/3] BID, 640 mg, N=10, pooled studies
[14] = in total, across all doses and schedules

NC1(C(=O)N[C@@H](CCO)c2ccc(Cl)cc2)CCN(c2ncnc3[nH]ccc23)CC1 [capivasertib, 4-amino-N-[(1S)-1-(4-chlorophenyl)-3-hydroxypropyl]-1-(7H-pyrrolo[2,3-d]pyrimidin– 4-yl)piperidine-4-carboxamide]
AE grade ≥ 1 [1]: 8 (100) n (%)
AE grade ≥ 3 [1]: 2 (25.0) n (%)
AEDD (AE leading to dose discontinuation) [1]: 0 n (%)
AEDM (AE leading to dose modification) [1]: 2 (25.0) n (%)
Diarrhea AE grade ≥ 2 [1]: 0 n (%)
Hyperglycemia AE grade ≥ 3 [1]: 0 n (%)
Increased BG > 13.9 mmol/L [1]: 0 n (%)
Rash AE grade ≥ 2 [1]: 1 (12.5) n (%)
SAE [1]: 2 (25.0) n (%)
AE grade ≥ 1 [2]: 5 (100) n (%)
AE grade ≥ 3 [2]: 0 n (%)
AEDD (AE leading to dose discontinuation) [2]: 0 n (%)
AEDM (AE leading to dose modification) [2]: 1 (20.0) n (%)
Diarrhea AE grade ≥ 2 [2]: 0 n (%)
Hyperglycemia AE grade ≥ 3 [2]: 0 n (%)
Increased BG > 13.9 mmol/L [2]: 0 n (%)
Rash AE grade ≥ 2 [2]: 1 (20.0) n (%)
SAE [2]: 1 (20.0) n (%)
AE grade ≥ 1 [3]: 12 (92.3) n (%)
AE grade ≥ 3 [3]: 4 (30.8) n (%)
AEDD (AE leading to dose discontinuation) [3]: 1 (7.7) n (%)
AEDM (AE leading to dose modification) [3]: 2 (15.4) n (%)
Diarrhea AE grade ≥ 2 [3]: 4 (30.8) n (%)
Hyperglycemia AE grade ≥ 3 [3]: 2 (15.4) n (%)
Increased BG > 13.9 mmol/L [3]: 4 (30.8) n (%)
Rash AE grade ≥ 2 [3]: 3 (23.1) n (%)
SAE [3]: 0 n (%)
AE grade ≥ 1 [4]: 18 (100) n (%)
AE grade ≥ 3 [4]: 10 (55.6) n (%)
AEDD (AE leading to dose discontinuation) [4]: 3 (16.7) n (%)
AEDM (AE leading to dose modification) [4]: 8 (44.4) n (%)
Diarrhea AE grade ≥ 2 [4]: 5 (27.8) n (%)
Hyperglycemia AE grade ≥ 3 [4]: 2 (11.1) n (%)
Increased BG > 13.9 mmol/L [4]: 3 (16.7) n (%)
Rash AE grade ≥ 2 [4]: 5 (27.8) n (%)
SAE [4]: 4 (22.2) n (%)
AE grade ≥ 1 [5]: 16 (100) n (%)
AE grade ≥ 3 [5]: 15 (93.8) n (%)
AEDD (AE leading to dose discontinuation) [5]: 7 (43.8) n (%)
AEDM (AE leading to dose modification) [5]: 15 (93.8) n (%)
Diarrhea AE grade ≥ 2 [5]: 10 (62.5) n (%)
Hyperglycemia AE grade ≥ 3 [5]: 4 (25.0) n (%)
Increased BG > 13.9 mmol/L [5]: 7 (43.8) n (%)
Rash AE grade ≥ 2 [5]: 8 (50.0) n (%)
SAE [5]: 6 (37.5) n (%)
AE grade ≥ 1 [6]: 6 (100) n (%)
AE grade ≥ 3 [6]: 6 (100) n (%)
AEDD (AE leading to dose discontinuation) [6]: 4 (66.7) n (%)
AEDM (AE leading to dose modification) [6]: 5 (83.3) n (%)
Diarrhea AE grade ≥ 2 [6]: 5 (83.3) n (%)
Hyperglycemia AE grade ≥ 3 [6]: 2 (33.3) n (%)
Increased BG > 13.9 mmol/L [6]: 2 (33.3) n (%)
Rash AE grade ≥ 2 [6]: 3 (50.0) n (%)
SAE [6]: 6 (100) n (%)
AE grade ≥ 1 [7]: 2 (100) n (%)
AE grade ≥ 3 [7]: 2 (100) n (%)
AEDD (AE leading to dose discontinuation) [7]: 2 (100) n (%)
AEDM (AE leading to dose modification) [7]: 1 (50.0) n (%)
Diarrhea AE grade ≥ 2 [7]: 1 (50.0) n (%)
Hyperglycemia AE grade ≥ 3 [7]: 0 n (%)
Increased BG > 13.9 mmol/L [7]: 1 (50.0) n (%)
Rash AE grade ≥ 2 [7]: 2 (100) n (%)
SAE [7]: 2 (100) n (%)
AE grade ≥ 1 [8]: 274 (98.9) n (%)
AE grade ≥ 3 [8]: 182 (65.7) n (%)
AEDD (AE leading to dose discontinuation) [8]: 51 (18.4) n (%)
AEDM (AE leading to dose modification) [8]: 139 (50.2) n (%)
Diarrhea AE grade ≥ 2 [8]: 102 (36.8) n (%)
Hyperglycemia AE grade ≥ 3 [8]: 72 (26.0) n (%)
Increased BG > 13.9 mmol/L [8]: 126 (45.5) n (%)
Rash AE grade ≥ 2 [8]: 73 (26.4) n (%)
SAE [8]: 107 (38.6) n (%)
AE grade ≥ 1 [9]: 14 (100) n (%)
AE grade ≥ 3 [9]: 11 (78.6) n (%)
AEDD (AE leading to dose discontinuation) [9]: 2 (14.3) n (%)
AEDM (AE leading to dose modification) [9]: 2 (14.3) n (%)
Diarrhea AE grade ≥ 2 [9]: 3 (21.4) n (%)
Hyperglycemia AE grade ≥ 3 [9]: 7 (50.0) n (%)
Increased BG > 13.9 mmol/L [9]: 8 (57.1) n (%)
Rash AE grade ≥ 2 [9]: 2 (14.3) n (%)
SAE [9]: 7 (50.0) n (%)
AE grade ≥ 1 [10]: 14 (100) n (%)
AE grade ≥ 3 [10]: 8 (57.1) n (%)
AEDD (AE leading to dose discontinuation) [10]: 1 (7.1) n (%)
AEDM (AE leading to dose modification) [10]: 8 (57.1) n (%)
Diarrhea AE grade ≥ 2 [10]: 3 (21.4) n (%)
Hyperglycemia AE grade ≥ 3 [10]: 5 (35.7) n (%)
Increased BG > 13.9 mmol/L [10]: 9 (64.3) n (%)
Rash AE grade ≥ 2 [10]: 2 (14.3) n (%)
SAE [10]: 5 (35.7) n (%)
AE grade ≥ 1 [11]: 6 (75.0) n (%)
AE grade ≥ 3 [11]: 3 (37.5) n (%)
AEDD (AE leading to dose discontinuation) [11]: 0 n (%)
AEDM (AE leading to dose modification) [11]: 3 (37.5) n (%)
Diarrhea AE grade ≥ 2 [11]: 4 (50.0) n (%)
Hyperglycemia AE grade ≥ 3 [11]: 1 (12.5) n (%)
Increased BG > 13.9 mmol/L [11]: 3 (37.5) n (%)
Rash AE grade ≥ 2 [11]: 1 (12.5) n (%)
SAE [11]: 0 n (%)
AE grade ≥ 1 [12]: 163 (100) n (%)
AE grade ≥ 3 [12]: 114 (69.9) n (%)
AEDD (AE leading to dose discontinuation) [12]: 27 (16.6) n (%)
AEDM (AE leading to dose modification) [12]: 90 (55.2) n (%)
Diarrhea AE grade ≥ 2 [12]: 64 (39.3) n (%)
Hyperglycemia AE grade ≥ 3 [12]: 45 (27.6) n (%)
Increased BG > 13.9 mmol/L [12]: 82 (50.3) n (%)
Rash AE grade ≥ 2 [12]: 45 (27.6) n (%)
SAE [12]: 68 (41.7) n (%)
AE grade ≥ 1 [13]: 10 (100) n (%)
AE grade ≥ 3 [13]: 7 (70.0) n (%)
AEDD (AE leading to dose discontinuation) [13]: 4 (40) n (%)
AEDM (AE leading to dose modification) [13]: 2 (20.0) n (%)
Diarrhea AE grade ≥ 2 [13]: 3 (30.0) n (%)
Hyperglycemia AE grade ≥ 3 [13]: 4 (40.0) n (%)
Increased BG > 13.9 mmol/L [13]: 7 (70.0) n (%)
Rash AE grade ≥ 2 [13]: 0 n (%)
SAE [13]: 6 (60.0) n (%)
patients with AE grade ≥ 1 [14]: 98.9%
patients with AEs grade ≥ 3 [14]: 65.7%
patients with AEs leading to dose discontinuation [14]: 18.4%
patients with AEs leading to dose modification [14]: 50.2%
patients with SAEs [14]: 38.6%
patients with diarrhea AE grade ≥ 2 [14]: 36.8%
patients with hyperglycemia grade ≥ 3 [14]: 26.0%
patients with increased blood glucose > 13.9 mmol/L [14]: 45.5%
patients with rash AE grade ≥ 2 [14]: 26.4%
